From article PMC11974712 (bioRxiv, 2025)

Biological target: Human Fatty Acid Binding Protein (FABP4) (Homo sapiens, UniProt P15090)
Test: Binding inhibition assay: displacement of the fluorescent probe ANS from FABP4
Conditions: for binding to FABP4 (in words): ANS displacement

Chain of Human Fatty Acid Binding Protein (FABP4) (P15090 whole entry): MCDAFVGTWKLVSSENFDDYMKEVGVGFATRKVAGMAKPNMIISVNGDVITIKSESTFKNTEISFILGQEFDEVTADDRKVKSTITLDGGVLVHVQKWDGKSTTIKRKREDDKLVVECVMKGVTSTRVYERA

| binding to FABP4 (in words) | Kd [µM] | Compound | fold increase in affinity relative to hydrogenated analog heptanoic acid (ratio of Kd values) |
| --- | --- | --- | --- |
| no detectable binding |  | CCCCCC(=O)O [Hexanoic Acid] |  |
|  | 145 ± 3.1 | CCCCCCC(=O)O [Heptanoic Acid] |  |
| no detectable binding |  | CCCCC(=O)O [Pentanoic Acid] |  |

Further lines, the compound ahead of its results:

| Compound | binding to FABP4 (in words) | Kd [µM] | fold increase in affinity relative to hydrogenated analog heptanoic acid (ratio of Kd values) |
| --- | --- | --- | --- |
| CCCC(=O)O [Butanoic Acid] | no detectable binding |  |  |
| O=C(O)C(F)(F)C(F)(F)C(F)(F)C(F)(F)C(F)(F)C(F)(F)F [PFHpA, Perfluoroheptanoic Acid] |  | 4.46 ± 0.17 | approximately 30 fold |
| O=C(O)C(F)(F)C(F)(F)C(F)(F)C(F)(F)C(F)(F)C(F)(F)C(F)(F)C(F)(F)C(F)(F)C(F)(F)C(F)(F)F [PFDoA, Perfluorododecanoic Acid] |  | < 1 |  |
